# Data from patent publication US20240041878A1, “APELIN RECEPTOR MODULATORS FOR TREATMENT OF A DISORDER OR DISEASE ASSOCIATED WITH BBB PERMEABILITY” (BioAge Labs, Inc., priority 2022, published 2024).
# Tests used:
# rats = conditions: Ason et al., JCI Insight 2020; cited from earlier work
# 26 month-old mice [1] = assay: Mouse Cytokine Array Panel on plasma of aged mice; type: in vivo; conditions: 50 mg/kg BID P.O. one week, 10 of 40 cytokines detectable
# Protocol: The mice were handled in accordance with principles and guidelines established by the “Guide for the Care and Use of Laboratory Animals” and overseen by the BioAge Lab's institutional animal care and use committee (IACUC). Mice were housed conventionally in a constant temperature (20-22° C.) and humidity (40%-60%) animal room with a 12/12 h light/dark cycle and free access to food and water. 26 month-old mice were randomized based on the body weight and body condition scores to two groups (vehicle or BGE-105, n=8). 4 month-old female mice were used as an additional control group (vehicle, n=4). Mice were administered P.O. vehicle or BGE-105 at 50 mg/kg (BID) for one week. After completion of dosing, blood samples were collected via retro-orbital bleeding under isoflurane anesthesia into K2-EDTA tubes to prevent coagulation. Mice were euthanized via transcardiac perfusion under isoflurane anesthesia. Whole blood was centrifuged to isolate plasma, which was stored at −80° C. until further experimentation.
# For qualitative analysis of 40 different cytokines, plasma samples were assessed with the Mouse Cytokine Array Panel (R&D Systems) according to manufacturer's instructions. […] The optical of each dot on the array serves as a relative measure of cytokine abundance (e.g., a more intensely-stained dot denotes more cytokine present in the sample) and was analyzed with ImageJ software (NIH).
# Mouse primary astrocytes = assay: Proteome Profiler Mouse Cytokine Array of astrocyte culture supernatant; type: cell-based; conditions: RAC+BGE-105 [50 nM and 250 nM] versus RAC
# Protocol: To stimulate astrocytes into a reactive state found in aging and neurodegenerative diseases per previous publications (Liddelow et al., 2017; Barbar et al., 2020), a combination of the cytokines TNF-α and IL-1α, and complement factor C1q, were added at 30 ng/mL, 3 ng/mL, and 400 ng/mL, respectively, into astrocyte culture media to make ‘reactive astrocyte cocktail’ (RAC) media. […] Bachem, Cat. #4029110), BAY-11-7082 (50 μM; Abcam, Cat. #ab141228) or equal volume of vehicle (0.01% DMSO in PBS) (hereafter referred to as ‘RAC treatment’). […] To assess a panel of cytokines and chemokines, cell culture supernatant was diluted 1:10 and assayed using the Proteome Profiler Mouse Cytokine Array Kit, Panel A (R&D Systems, Cat. #ARY006) per manufacturer's protocol. Dot blots were analyzed in Fiji (Schindelin et al. 2012. Fiji: an open-source platform for biological-image analysis. Nat Methods 9, 676-682) and transcription factor enrichment was performed with Enrichr (Chen, et al. 2013. Enrichr: interactive and collaborative HTML5 gene list enrichment analysis tool. BMC Bioinformatics 14, 128).
# [2] = test system: 26-month-old female C57BL/6 mice; assay: Age-dependent BBB permeability model, Evans blue assay; type: in vivo, mouse; conditions: 50 mg/kg BID P.O. one week; aged versus aged+BGE-105; p<0.01
# Protocol: The mice were handled in accordance with principles and guidelines established by the “Guide for the Care and Use of Laboratory Animals” and overseen by the BioAge Lab's institutional animal care and use committee (IACUC). Mice were housed conventionally in a constant temperature (20-22° C.) and humidity (40%-60%) animal room with a 12/12 h light/dark cycle and free access to food and water.
# For assessment of BGE-105 activity, the age-dependent BBB permeability model was established using 26-month-old female C57BL/6 mice. Mice were randomized based on the body weight and body condition scores to two groups (vehicle or BGE-105, n=8). Mice were administered P.O. vehicle (Control) or BGE-105 via P.O. at 50 mg/kg (BID) for one week (7 days). See FIG. 4B for a schematic of the protocol. The BBB permeability was measured via Evans blue assay. Mice were intravenously injected with Evans Blue (2%, 75 ul/30 g BW). […]
# Frozen olfactory bulb and hippocampus were placed in 200 μl of extraction buffer (50% trichloroacetic acid in formamide) for 24 hours. […] Endpoint fluorescence was recorded (620 nm excitation, 680 nm emission) with a SpectraMax iD5 (Molecular Devices), normalized to tissue weight, and relative treatment-related change in fluorescence (a measure of blood-brain barrier leakage) was calculated compared to untreated aged mice.
# 26 month-old mice [3] = assay: Quantikine ELISAs for mouse CXCL1 and CXCL13 in plasma of aged mice; type: in vivo; conditions: 50 mg/kg BID P.O. one week, p<0.05
# Protocol: The mice were handled in accordance with principles and guidelines established by the “Guide for the Care and Use of Laboratory Animals” and overseen by the BioAge Lab's institutional animal care and use committee (IACUC). Mice were housed conventionally in a constant temperature (20-22° C.) and humidity (40%-60%) animal room with a 12/12 h light/dark cycle and free access to food and water. 26 month-old mice were randomized based on the body weight and body condition scores to two groups (vehicle or BGE-105, n=8). 4 month-old female mice were used as an additional control group (vehicle, n=4). Mice were administered P.O. vehicle or BGE-105 at 50 mg/kg (BID) for one week. After completion of dosing, blood samples were collected via retro-orbital bleeding under isoflurane anesthesia into K2-EDTA tubes to prevent coagulation. Mice were euthanized via transcardiac perfusion under isoflurane anesthesia. […]
# For quantitative analysis, plasma samples were assessed with Quantikine® enzyme-linked immunosorbent assays (ELISAs) for mouse CXCL1 and CXCL13 (R&D Systems) according to manufacturer's instructions. Optical density of the completed ELISA was imaged using a SpectraMax iD5 (Molecular Devices), sample concentrations were calculated compared to a standard curve, and relative change with age+/−BGE-105 treatment was calculated with young mouse plasma serving as the normalization.
smiles,measurement,setting,value
"COc1cccc(OC)c1-n1c(NS(=O)(=O)[C@@H](C)[C@H](C)c2ncc(C)cn2)nnc1-c1cncc(C)c1 [BGE-105, (2S,3R)—N-(4-(2,6-dimethoxyphenyl)-5-(5-methyl-3-pyridinyl)-4H-1,2,4-triazol-3-yl)-3-(5-methyl-2-pyrimidinyl)-2-butanesulfonamide]",cardiovascular response,rats,induces a cardiovascular response
same,average decrease of optical density of the detectable cytokines in plasma cytokine array,26 month-old mice [1],28%
same,cytokine and chemokine release (array panel),Mouse primary astrocytes,significantly reduced
same,change of age-induced increase in BBB permeability in the OB,[2],−28%
same,reduction of CXCL1 concentrations in plasma,26 month-old mice [3],35%
same,reduction of CXCL13 concentrations in plasma,26 month-old mice [3],26%
